The assay addresses T1, Pho1 (free form) (Ipomoea batatas, UniProt P27598).
T1 construct: native, purified from storage roots; 110-kDa band; 220-kDa homodimer
T1 sequence (P27598 44-955): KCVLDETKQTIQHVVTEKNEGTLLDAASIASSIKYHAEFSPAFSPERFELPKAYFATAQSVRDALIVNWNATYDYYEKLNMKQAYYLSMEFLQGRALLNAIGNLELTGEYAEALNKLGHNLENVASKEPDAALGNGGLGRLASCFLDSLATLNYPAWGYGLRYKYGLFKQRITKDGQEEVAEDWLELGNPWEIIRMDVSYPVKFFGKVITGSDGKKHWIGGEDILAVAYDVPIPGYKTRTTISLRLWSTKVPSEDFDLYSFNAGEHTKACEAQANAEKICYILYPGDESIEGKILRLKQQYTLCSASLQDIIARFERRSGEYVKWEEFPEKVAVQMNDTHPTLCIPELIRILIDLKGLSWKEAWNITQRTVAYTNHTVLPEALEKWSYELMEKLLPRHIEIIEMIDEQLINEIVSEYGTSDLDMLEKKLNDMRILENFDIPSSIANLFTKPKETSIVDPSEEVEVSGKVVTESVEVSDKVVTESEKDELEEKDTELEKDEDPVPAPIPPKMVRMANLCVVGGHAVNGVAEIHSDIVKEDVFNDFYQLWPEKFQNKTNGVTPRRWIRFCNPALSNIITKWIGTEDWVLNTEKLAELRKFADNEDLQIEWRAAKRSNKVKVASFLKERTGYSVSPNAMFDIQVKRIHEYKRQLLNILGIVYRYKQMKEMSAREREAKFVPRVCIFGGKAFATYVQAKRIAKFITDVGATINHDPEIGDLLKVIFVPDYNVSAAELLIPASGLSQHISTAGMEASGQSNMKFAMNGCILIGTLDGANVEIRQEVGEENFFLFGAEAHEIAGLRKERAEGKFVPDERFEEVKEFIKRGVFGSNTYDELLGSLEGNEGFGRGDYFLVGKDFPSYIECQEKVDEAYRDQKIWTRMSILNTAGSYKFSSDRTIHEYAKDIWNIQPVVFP
The assay is described as follows: Glc-1-P production, coupled phosphoglucomutase / Glc-6-P dehydrogenase (NADPH). It is filed as biochemical. The following applies: 0.5 mM substrate, 0.5 mM inorganic phosphate, 50 mM sodium acetate pH 6.0, 37°C, 1 h; phosphorolysis.

The structures appear in SMILES notation.

The values below come from PMC5417683, “Plastidial α-glucan phosphorylase 1 complexes with disproportionating enzyme 1 in Ipomoea batatas storage roots for elevating malto-oligosaccharide metabolism” (PLoS ONE, 2017).

As to `OC[C@H]1O[C@H](O[C@H]2[C@H](O)[C@@H](O)[C@@H](O[C@H]3[C@H](O)[C@@H](O)[C@@H](O[C@H]4[C@H](O)[C@@H](O)[C@@H](O[C@H]5[C@H](O)[C@@H](O)C(O)O[C@@H]5CO)O[C@@H]4CO)O[C@@H]3CO)O[C@@H]2CO)[C@H](O)[C@@H](O)[C@@H]1O` (some centres unmarked) [G5, maltopentaose], the “Glc-1-P production, coupled phosphoglucomutase / Glc-6-P dehydrogenase (NADPH)” value is reported as “displayed high catalytic activity with G5, G6, G7, or dextrin to produce Glc-1-P”.
In the case of `OC[C@H]1O[C@H](O[C@H]2[C@H](O)[C@@H](O)[C@@H](O[C@H]3[C@H](O)[C@@H](O)[C@@H](O[C@H]4[C@H](O)[C@@H](O)[C@@H](O[C@H]5[C@H](O)[C@@H](O)[C@@H](O[C@H]6[C@H](O)[C@@H](O)C(O)O[C@@H]6CO)O[C@@H]5CO)O[C@@H]4CO)O[C@@H]3CO)O[C@@H]2CO)[C@H](O)[C@@H](O)[C@@H]1O` (some centres unmarked) [G6, maltohexaose] it was “displayed high catalytic activity with G5, G6, G7, or dextrin to produce Glc-1-P”.
